Publication PMC4505863 (ACS Chemical Neuroscience, 2014)

Key:
[1] = target: T1, 5-HT1A (Homo sapiens, UniProt P08908); assay: PDSP screening affinity 5-HT1A; type: binding; conditions: 5-HT1A affinity
T1 sequence (P08908 1-422): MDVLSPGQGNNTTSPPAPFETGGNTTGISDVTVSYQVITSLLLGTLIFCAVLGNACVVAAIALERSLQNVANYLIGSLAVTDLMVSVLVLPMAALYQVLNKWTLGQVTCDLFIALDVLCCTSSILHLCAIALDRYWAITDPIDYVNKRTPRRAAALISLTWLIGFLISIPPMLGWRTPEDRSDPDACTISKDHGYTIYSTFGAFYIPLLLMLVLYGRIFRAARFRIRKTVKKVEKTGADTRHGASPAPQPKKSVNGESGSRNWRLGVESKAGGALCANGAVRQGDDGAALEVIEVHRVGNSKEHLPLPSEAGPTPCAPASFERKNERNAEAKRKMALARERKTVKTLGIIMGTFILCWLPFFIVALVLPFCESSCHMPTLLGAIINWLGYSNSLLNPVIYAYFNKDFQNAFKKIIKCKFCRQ

[2] = target: 5-HT2B (Homo sapiens, UniProt P41595); assay: PDSP screening affinity 5-HT2B; type: binding
Chain of 5-HT2B (P41595 whole entry): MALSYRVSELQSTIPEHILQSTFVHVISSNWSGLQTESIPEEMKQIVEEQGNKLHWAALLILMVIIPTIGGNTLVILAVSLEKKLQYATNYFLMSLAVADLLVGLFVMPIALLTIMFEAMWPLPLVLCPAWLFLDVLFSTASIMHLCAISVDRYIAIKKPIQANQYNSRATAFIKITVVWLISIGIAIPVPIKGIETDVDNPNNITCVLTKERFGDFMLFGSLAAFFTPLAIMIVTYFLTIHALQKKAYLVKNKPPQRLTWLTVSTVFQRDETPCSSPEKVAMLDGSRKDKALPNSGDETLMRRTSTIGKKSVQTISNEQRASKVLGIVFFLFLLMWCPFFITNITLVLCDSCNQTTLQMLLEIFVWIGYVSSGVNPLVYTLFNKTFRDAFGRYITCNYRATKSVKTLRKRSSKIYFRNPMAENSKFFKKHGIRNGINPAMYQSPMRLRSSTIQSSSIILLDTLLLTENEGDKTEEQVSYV

[3] = target: h5-HT2B (Homo sapiens, UniProt P41595); assay: Ca2+ mobilization assay; type: cell-based; conditions: for Emax: HEK293, read-out: h5-HT2B Emax
Chain of h5-HT2B (P41595 whole entry): as above

[4] = target: T2, r5-HT2C (Rattus norvegicus, UniProt P08909); assay: Ca2+ mobilization assay; type: cell-based; conditions: for Emax: read-out: r5-HT2C Emax
T2 sequence (P08909 33-460): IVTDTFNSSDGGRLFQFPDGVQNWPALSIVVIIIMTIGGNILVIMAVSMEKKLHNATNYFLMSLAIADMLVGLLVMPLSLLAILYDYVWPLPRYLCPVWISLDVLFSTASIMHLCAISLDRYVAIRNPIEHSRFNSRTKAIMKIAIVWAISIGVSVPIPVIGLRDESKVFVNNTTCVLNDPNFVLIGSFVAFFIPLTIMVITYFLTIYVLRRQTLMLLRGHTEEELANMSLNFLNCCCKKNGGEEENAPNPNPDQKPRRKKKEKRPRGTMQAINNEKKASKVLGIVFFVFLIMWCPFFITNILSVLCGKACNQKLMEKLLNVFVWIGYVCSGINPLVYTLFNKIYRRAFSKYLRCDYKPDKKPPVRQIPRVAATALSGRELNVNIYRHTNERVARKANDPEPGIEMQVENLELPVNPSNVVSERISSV

[5] = target: 5-HT1D (Homo sapiens, UniProt P28221); assay: PDSP screening affinity 5-HT1D; type: binding
Chain of 5-HT1D (P28221 whole entry): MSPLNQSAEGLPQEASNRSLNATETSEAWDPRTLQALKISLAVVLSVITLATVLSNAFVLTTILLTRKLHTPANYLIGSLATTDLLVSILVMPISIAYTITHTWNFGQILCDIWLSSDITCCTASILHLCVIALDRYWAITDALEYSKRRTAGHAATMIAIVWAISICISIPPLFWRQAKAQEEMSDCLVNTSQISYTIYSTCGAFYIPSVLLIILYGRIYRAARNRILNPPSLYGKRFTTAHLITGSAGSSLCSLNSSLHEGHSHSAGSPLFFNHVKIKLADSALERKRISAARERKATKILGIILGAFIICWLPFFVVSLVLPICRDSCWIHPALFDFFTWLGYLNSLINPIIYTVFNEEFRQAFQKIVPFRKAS

[6] = target: 5-ht1e (Homo sapiens, UniProt P28566); assay: PDSP screening affinity 5-ht1e; type: binding
Chain of 5-ht1e (P28566 whole entry): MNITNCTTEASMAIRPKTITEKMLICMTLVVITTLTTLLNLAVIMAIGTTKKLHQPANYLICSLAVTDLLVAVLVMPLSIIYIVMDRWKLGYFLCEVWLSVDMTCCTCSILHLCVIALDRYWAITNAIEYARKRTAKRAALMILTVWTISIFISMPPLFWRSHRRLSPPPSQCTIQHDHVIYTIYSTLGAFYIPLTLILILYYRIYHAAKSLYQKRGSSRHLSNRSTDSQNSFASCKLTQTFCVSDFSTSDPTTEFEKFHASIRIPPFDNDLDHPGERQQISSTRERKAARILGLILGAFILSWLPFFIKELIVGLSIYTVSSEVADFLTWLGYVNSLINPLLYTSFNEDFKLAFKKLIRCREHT

[7] = target: T3, h5-HT2C (Homo sapiens, UniProt P28335); assay: Ca2+ mobilization assay; type: cell-based; conditions: for Emax: HEK293, read-out: h5HT2C Emax; for EC50: h5HT2C EC50, Ca2+ mobilization
T3 sequence (P28335 33-458): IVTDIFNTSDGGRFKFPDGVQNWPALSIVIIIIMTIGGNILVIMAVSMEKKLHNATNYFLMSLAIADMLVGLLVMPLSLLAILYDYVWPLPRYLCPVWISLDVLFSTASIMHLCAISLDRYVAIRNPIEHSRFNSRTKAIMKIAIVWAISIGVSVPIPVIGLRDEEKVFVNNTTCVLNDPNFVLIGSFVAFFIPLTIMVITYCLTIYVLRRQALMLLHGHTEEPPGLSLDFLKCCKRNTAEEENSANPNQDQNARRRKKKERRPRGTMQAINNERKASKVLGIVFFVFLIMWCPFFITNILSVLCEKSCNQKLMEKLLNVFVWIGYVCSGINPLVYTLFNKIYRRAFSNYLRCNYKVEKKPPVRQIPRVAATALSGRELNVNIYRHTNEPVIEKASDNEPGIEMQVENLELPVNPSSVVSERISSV

[8] = target: h5-HT2A (Homo sapiens, UniProt P28223); assay: Ca2+ mobilization assay; type: cell-based; conditions: for Emax: HEK293, read-out: h5-HT2A Emax, percentage of the maximum response to 5-HT
Chain of h5-HT2A (P28223 whole entry): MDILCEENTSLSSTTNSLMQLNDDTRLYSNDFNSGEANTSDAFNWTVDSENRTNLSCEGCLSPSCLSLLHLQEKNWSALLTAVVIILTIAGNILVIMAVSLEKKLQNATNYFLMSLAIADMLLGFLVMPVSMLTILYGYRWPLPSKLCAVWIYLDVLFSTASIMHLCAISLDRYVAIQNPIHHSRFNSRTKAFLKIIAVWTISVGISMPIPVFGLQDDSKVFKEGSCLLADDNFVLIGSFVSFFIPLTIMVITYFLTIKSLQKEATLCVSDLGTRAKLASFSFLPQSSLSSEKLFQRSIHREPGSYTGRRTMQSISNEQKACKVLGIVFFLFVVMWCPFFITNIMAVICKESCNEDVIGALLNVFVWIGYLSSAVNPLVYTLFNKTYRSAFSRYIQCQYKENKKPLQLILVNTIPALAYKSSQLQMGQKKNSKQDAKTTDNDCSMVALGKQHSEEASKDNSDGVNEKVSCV

[9] = system: Male C57BL/6J mice; assay: Mouse head twitch response; conditions: for max counts: HTR counts; for ED50: Mus musculus, sc, read-out: ED50 mg/kg (95% CI), mouse head twitch; for magnitude of peak effect × vehicle / maximally effective dose: mouse head twitch
[10] = target: 5-ht5a (Homo sapiens, UniProt P47898); assay: PDSP screening affinity 5-ht5a; type: binding; conditions: 5-ht5a affinity
Chain of 5-ht5a (P47898 whole entry): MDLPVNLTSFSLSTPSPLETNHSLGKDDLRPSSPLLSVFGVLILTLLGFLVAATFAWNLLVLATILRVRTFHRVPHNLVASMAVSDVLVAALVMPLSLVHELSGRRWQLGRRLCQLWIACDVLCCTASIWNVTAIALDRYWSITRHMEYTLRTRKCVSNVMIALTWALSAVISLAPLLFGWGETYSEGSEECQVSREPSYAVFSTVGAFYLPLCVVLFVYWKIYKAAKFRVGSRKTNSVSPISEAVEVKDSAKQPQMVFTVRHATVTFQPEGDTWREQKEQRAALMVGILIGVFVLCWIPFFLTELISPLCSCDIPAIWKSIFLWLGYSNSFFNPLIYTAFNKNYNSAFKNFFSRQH

[11] = target: T4, human 5-HT2C receptor (Homo sapiens, UniProt P28335); assay: h5-HT2C affinity, agonist radioligand [125I]DOI; type: binding
T4 sequence (P28335 33-458): T3 sequence (P28335 33-458)

[12] = target: 5-HT1B (Homo sapiens, UniProt P28222); assay: PDSP screening affinity 5-HT1B; type: binding; conditions: 5-HT1B affinity
Chain of 5-HT1B (P28222 whole entry): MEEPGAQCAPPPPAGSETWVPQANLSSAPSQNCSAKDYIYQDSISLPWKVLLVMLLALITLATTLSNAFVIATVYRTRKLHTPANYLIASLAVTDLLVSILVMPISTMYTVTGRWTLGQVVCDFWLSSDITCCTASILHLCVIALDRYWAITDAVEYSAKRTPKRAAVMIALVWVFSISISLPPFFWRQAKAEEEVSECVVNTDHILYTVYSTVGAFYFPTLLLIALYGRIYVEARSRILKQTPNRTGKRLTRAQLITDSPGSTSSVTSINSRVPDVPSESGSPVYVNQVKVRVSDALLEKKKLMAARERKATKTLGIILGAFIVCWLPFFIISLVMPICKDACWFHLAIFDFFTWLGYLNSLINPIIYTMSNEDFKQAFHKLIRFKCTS

[13] = target: 5-HT6 (Homo sapiens, UniProt P50406); assay: PDSP screening affinity 5-HT6; type: binding
Chain of 5-HT6 (P50406 whole entry): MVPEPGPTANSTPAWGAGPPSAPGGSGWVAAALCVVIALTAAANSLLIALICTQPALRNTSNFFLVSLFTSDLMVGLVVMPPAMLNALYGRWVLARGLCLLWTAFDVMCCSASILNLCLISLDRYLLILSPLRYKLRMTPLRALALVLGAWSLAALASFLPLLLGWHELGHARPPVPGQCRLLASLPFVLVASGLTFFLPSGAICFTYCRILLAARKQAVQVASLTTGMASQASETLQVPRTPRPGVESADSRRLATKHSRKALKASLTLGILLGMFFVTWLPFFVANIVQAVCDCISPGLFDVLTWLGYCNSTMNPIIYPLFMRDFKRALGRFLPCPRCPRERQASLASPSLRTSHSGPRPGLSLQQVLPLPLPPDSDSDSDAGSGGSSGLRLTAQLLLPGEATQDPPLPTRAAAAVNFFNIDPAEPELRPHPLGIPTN

[14] = target: T5, 5-HT3 (Homo sapiens, UniProt P46098); assay: PDSP screening affinity 5-HT3; type: binding
T5 sequence (P46098 24-478): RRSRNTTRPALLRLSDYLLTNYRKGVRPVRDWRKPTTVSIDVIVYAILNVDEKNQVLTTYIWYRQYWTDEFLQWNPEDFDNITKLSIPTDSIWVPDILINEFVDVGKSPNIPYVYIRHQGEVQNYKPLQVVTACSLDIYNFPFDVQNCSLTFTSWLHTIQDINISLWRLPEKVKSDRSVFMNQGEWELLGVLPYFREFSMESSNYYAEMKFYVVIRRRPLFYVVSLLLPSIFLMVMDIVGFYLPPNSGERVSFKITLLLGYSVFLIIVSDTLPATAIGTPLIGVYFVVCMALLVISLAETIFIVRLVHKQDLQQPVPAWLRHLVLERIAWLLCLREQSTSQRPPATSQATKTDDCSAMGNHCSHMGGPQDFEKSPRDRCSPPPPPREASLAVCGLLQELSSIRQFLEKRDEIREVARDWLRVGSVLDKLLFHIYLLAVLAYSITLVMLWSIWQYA

[15] = target: T6, 5-HT2A receptor (Homo sapiens, UniProt P28223); assay: h5-HT2A affinity, agonist radioligand [125I]DOI; type: binding
T6 sequence (P28223 whole entry): as the sequence (P28223 whole entry) above

[16] = target: T6, 5-HT2A receptor; assay: h5-HT2A affinity, antagonist radioligand [3H]ketanserin; type: binding
[17] = target: 5-HT7 (Homo sapiens, UniProt P34969); assay: PDSP screening affinity 5-HT7; type: binding
Chain of 5-HT7 (P34969 whole entry): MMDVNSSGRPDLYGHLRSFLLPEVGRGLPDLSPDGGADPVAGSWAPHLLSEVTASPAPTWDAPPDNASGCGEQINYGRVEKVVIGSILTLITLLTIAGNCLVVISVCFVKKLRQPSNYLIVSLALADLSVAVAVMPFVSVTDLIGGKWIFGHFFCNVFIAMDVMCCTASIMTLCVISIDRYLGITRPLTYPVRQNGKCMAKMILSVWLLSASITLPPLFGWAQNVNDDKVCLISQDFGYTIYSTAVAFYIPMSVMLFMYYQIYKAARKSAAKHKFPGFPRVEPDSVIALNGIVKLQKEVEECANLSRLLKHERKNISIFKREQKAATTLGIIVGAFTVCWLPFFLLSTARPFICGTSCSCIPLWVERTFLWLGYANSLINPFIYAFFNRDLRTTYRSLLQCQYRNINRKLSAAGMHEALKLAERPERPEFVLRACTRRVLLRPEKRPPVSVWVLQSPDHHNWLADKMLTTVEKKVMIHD

[18] = target: r5-HT2A (Rattus norvegicus, UniProt P14842); assay: Ca2+ mobilization assay; type: cell-based; conditions: for EC50: r5-HT2A EC50, Ca2+ mobilization; for Emax: read-out: r5-HT2A Emax, percentage of the maximum response to 5-HT
Chain of r5-HT2A (P14842 whole entry): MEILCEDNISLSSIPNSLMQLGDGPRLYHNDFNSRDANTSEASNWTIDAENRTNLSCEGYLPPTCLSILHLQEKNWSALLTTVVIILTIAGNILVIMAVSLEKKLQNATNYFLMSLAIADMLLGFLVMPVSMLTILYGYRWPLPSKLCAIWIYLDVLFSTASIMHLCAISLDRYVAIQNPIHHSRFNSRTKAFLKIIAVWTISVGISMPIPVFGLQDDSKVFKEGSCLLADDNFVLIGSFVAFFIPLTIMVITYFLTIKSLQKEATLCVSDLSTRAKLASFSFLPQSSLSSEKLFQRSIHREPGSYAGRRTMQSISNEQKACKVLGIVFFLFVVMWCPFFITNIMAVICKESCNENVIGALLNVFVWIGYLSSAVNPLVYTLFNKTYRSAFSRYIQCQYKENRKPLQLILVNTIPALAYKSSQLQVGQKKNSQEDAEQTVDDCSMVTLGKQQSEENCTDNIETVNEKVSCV

[19] = target: T4, human 5-HT2C receptor; assay: h5-HT2C affinity, antagonist radioligand [3H]mesulergine; type: binding
[20] = h5-HT2B EC50, Ca2+ mobilization
[21] = r5-HT2C EC50, Ca2+ mobilization

COc1ccc2[nH]cc(CCNCc3cccc(Br)c3)c2c1 [Compound 5e, N-(3-Bromobenzyl)-2-(5-methoxy-1H-indol-3-yl)ethan-1-amine]
Ki [1]: 155 nM | Ki ([2]; 5-HT2B affinity): 3.6 nM | Ki ([2]; 5-HT2B pKi ± SEM): 3.55 nM | Emax [3]: 20 ± 2% | EC50 [3, 20]: 29 nM | EC50 [4, 21]: 422 nM | EC50 ([4]; r5-HT2C pEC50 ± SEM, Ca2+ mobilization): 417 nM | Emax [4]: 112 ± 3% | Ki [5]: 381 nM | Ki [6]: > 10000 nM | Emax [7]: 64 ± 8% | EC50 [7]: 321 nM | EC50 [8]: 13 nM | Emax [8]: 73.8 ± 1.1% | max counts ([9]; SC): 14.2 | ED50 [9]: 5.18 mg/kg | activity in the HTR assay (active / inactive) ([9]; SC, doses up to 30 mg/kg): active | magnitude of peak effect × vehicle ([9]; SC): 4.4 × vehicle | maximally effective dose ([9]; SC): 30 mg/kg | Ki [10]: 612 nM | Ki [11]: 5.62 nM | Ki [12]: 6430 nM | Ki ([13]; 5-HT6 affinity): 45 nM | Ki ([13]; 5-HT6 pKi ± SEM): 45.7 nM | Ki [14]: > 10000 nM | Ki [15]: 1.48 nM | Ki [16]: 6.76 nM | Ki ([17]; 5-HT7 affinity): 116 nM | Ki ([17]; 5-HT7 pKi ± SEM): 117 nM | EC50 [18]: 130 nM | Emax [18]: 65.5 ± 0.8%

COc1ccc2[nH]cc(CCNCc3cccc(F)c3)c2c1 [Compound 5g, N-(3-Fluorobenzyl)-2-(5-methoxy-1H-indol-3-yl)ethan-1-amine]
Ki [1]: 295 nM | Ki ([2]; 5-HT2B pKi ± SEM): 21.9 nM | Emax [3]: 37 ± 1% | EC50 ([3]; h5-HT2B pEC50 ± SEM, Ca2+ mobilization, NA = not active, Emax ≤ 15%): 38 nM | EC50 [4, 21]: 46 nM | Emax [4]: 100 ± 3% | Ki [5]: 319 nM | Ki [6]: > 10000 nM | Emax [7]: 83 ± 5% | EC50 [7]: 192 nM | EC50 [8]: 10 nM | Emax [8]: 89.3 ± 1.1% | max counts ([9]; SC): 14.5 | ED50 [9]: 3.33 mg/kg | magnitude of peak effect × vehicle ([9]; SC): 7.3 × vehicle | maximally effective dose ([9]; SC): 10 mg/kg | Ki [19]: 47.9 nM | Ki [10]: 2450 nM | Ki [11]: 8.71 nM | Ki [12]: 2670 nM | Ki ([13]; 5-HT6 affinity): 59 nM | Ki [14]: > 10000 nM | Ki [16]: 21.4 nM | Ki ([17]; 5-HT7 affinity): 242 nM | EC50 [18]: 80 nM | Emax [18]: 69.1 ± 1.3%

COc1ccc2[nH]cc(CCNCc3cccc(C(F)(F)F)c3)c2c1 [Compound 5k, N-(3-Trifluoromethylbenzyl)-2-(5-methoxy-1H-indol-3-yl)ethan-1-amine]
Ki [1]: 240 nM | Ki ([2]; 5-HT2B pKi ± SEM): 27.5 nM | Emax [3]: 51 ± 2% | EC50 [3, 20]: 107 nM | EC50 [4, 21]: 162 nM | Emax [4]: 104 ± 2% | Ki [5]: 278 nM | Ki [6]: > 10000 nM | Emax [7]: 75 ± 5% | EC50 [7]: 512 nM | EC50 [8]: 87 nM | Emax [8]: 75.5 ± 1.2% | Ki [19]: 102 nM | Ki [10]: 3090 nM | Ki [11]: 14.8 nM | Ki [12]: > 10000 nM | Ki ([13]; 5-HT6 affinity): 87 nM | Ki [14]: > 10000 nM | Ki [15]: 2.95 nM | Ki [16]: 28.2 nM | Ki ([17]; 5-HT7 affinity): 262 nM | EC50 [18]: 770 nM | Emax [18]: 69.6 ± 1.4%

COc1ccc2[nH]cc(CCNCc3cccc(SC)c3)c2c1 [Compound 5l, N-(3-Methylthiobenzyl)-2-(5-methoxy-1H-indol-3-yl)ethan-1-amine]
Ki [1]: 127 nM | Ki ([2]; 5-HT2B pKi ± SEM): 4.07 nM | EC50 [4, 21]: 205 nM | Emax [4]: 101 ± 2% | Ki [5]: 659 nM | Ki [6]: > 10000 nM | Emax [7]: 60 ± 4% | EC50 [7]: 283 nM | EC50 [8]: 32 nM | Emax [8]: 46.9 ± 0.8% | Ki [19]: 13.2 nM | Ki [10]: 841 nM | Ki [11]: 2.09 nM | Ki [12]: > 10000 nM | Ki ([13]; 5-HT6 affinity): 9.7 nM | Ki [14]: > 10000 nM | Ki [15]: 3.09 nM | Ki [16]: 8.91 nM | Ki ([17]; 5-HT7 affinity): 136 nM | EC50 [18]: 120 nM | Emax [18]: 32 ± 0.7%
